Data: ChEMBL document CHEMBL1862790, “Optimisation of fenarimol series for the treatment of Chagas disease”

Key:
Trypanosoma cruzi [1] = assay: microbe, parasite or virus in culture; format: functional, organism-based, Tulahuen LacZ, Clone C4; settings: Trypanosoma cruzi, Tulahuen LacZ, Clone C4
[2] = DNDI: Cytotoxicity against L-6 rat myoblasts from skeletal muscle cells; settings: L6 rat skeletal muscle myoblast cells
Trypanosoma cruzi [3] = assay: microbe, parasite or virus in culture; format: functional, Tulahuen LacZ, Clone C4; settings: Trypanosoma cruzi, Tulahuen LacZ, Clone C4

| SMILES | IC50 (Trypanosoma cruzi [1]) | IC90 (Trypanosoma cruzi [3]) | IC50 ([2]; IC50) | IC50 [2] |
| --- | --- | --- | --- | --- |
| O=C(c1ccc(C(F)(F)F)cc1)N1CCC(NC(c2ccc(C(F)(F)F)cc2)c2cnccn2)CC1 (configuration not stated) | 82 nM | 270 nM | 39900 nM |  |
| Cc1n[nH]c(C)c1C(=O)NC1CCN(C(c2ccc(C#N)cc2)c2cccnc2)CC1 (configuration not stated) | 185 nM | 518 nM | > 100000 nM |  |
| O=S(=O)(c1ccc(C(F)(F)F)cc1)N1CCC(NC(c2cnccn2)c2ccc(F)cc2F)CC1 (configuration not stated) | 360 nM | 820 nM | 62700 nM |  |
| O=C(c1ccccc1)N1CCC(NC(c2ccc(C(F)(F)F)cc2)c2cccnc2)CC1 (configuration not stated) | 83 nM | 770 nM | 72800 nM |  |
| CS(=O)(=O)N1CCN(C(c2ccc(C(F)(F)F)cc2)c2cccnc2)CC1 (configuration not stated) | 76.5 nM | 572 nM | > 100000 nM |  |
| Cc1ncsc1C(=O)N1CCN(C(c2ccc(C#N)cc2)c2cccnc2)CC1 (configuration not stated) | 513 nM | > 1000 nM | > 100000 nM |  |
| CC1(C)COC(c2cccc(C(O)(c3ccc(Cl)cc3)c3cncnc3)c2)=N1 (configuration not stated) | 500 nM | 890 nM | > 100000 nM |  |
| O=S(=O)(NC(c1ccc(C(F)(F)F)cc1)c1cnccn1)c1ccc(C(F)(F)F)cc1 (configuration not stated) | > 1000 nM | > 1000 nM | 59900 nM |  |
| N#Cc1ccc(C(c2cccnc2)N2CCC(NC(=O)c3cc[nH]n3)CC2)cc1 (configuration not stated) | 448 nM | 917 nM | > 100000 nM |  |
| O=C(NCCN1CCOCC1)c1cccc(C(O)(c2ccc(Cl)cc2)c2cccnc2)c1 (configuration not stated) | 500 nM | 950 nM | > 100000 nM |  |
| CC(C)CS(=O)(=O)N1CCC(NC(c2ccc(C(F)(F)F)cc2)c2cnccn2)CC1 (configuration not stated) | 330 nM | 880 nM | > 100000 nM |  |
| CC(C)C(=O)NC1CCN(C(c2ccc(C(F)(F)F)cc2)c2cnccn2)CC1 (configuration not stated) | 560 nM | 940 nM | > 100000 nM |  |
| CC(C)CC(=O)N1CCN(C(c2ccc(Cl)cc2)c2cncnc2)CC1 (configuration not stated) | 430 nM | 910 nM | > 100000 nM |  |
| CCC(=O)N1CCN(C(c2cncnc2)c2ccc(Cl)cc2F)CC1 (configuration not stated) | 440 nM | 860 nM | > 100000 nM |  |
| Cc1cnc(C(O)(c2ccc(Cl)cc2)c2cncnc2)cn1 (configuration not stated) | 2110 nM | 5910 nM | > 100000 nM |  |
| Cc1ncsc1C(=O)NC1CCN(C(c2ccc(C#N)cc2)c2cccnc2)CC1 (configuration not stated) | 71 nM | 202 nM | > 100000 nM |  |
| O=C(c1ccccc1)N1CCN(C(c2cncnc2)c2ccc(Cl)cc2F)CC1 (configuration not stated) | 220 nM | 580 nM | > 100000 nM |  |
| CS(=O)(=O)N1CCC(C(=O)NC(c2ccc(Cl)cc2)c2cccnc2)CC1 (configuration not stated) | 6090 nM | > 10000 nM | > 100000 nM |  |
| OC(c1cccnc1)(c1cnc(Cl)nc1)c1ccc(Cl)cc1F (configuration not stated) | 179 nM | 630 nM | > 100000 nM |  |
| N#Cc1ccc(C(NC2CCN(C(=O)c3ccccc3)CC2)c2cccnc2)cc1 (configuration not stated) | 433 nM | 948 nM | > 100000 nM |  |
| OC(c1ccc(Cl)cc1)(c1cccnc1)c1c(F)cccc1F (configuration not stated) | 80 nM | 182 nM |  | > 100000 nM |

| SMILES | IC50 (Trypanosoma cruzi [1]) | IC90 (Trypanosoma cruzi [3]) | IC50 ([2]; IC50) | IC50 [2] |
| --- | --- | --- | --- | --- |
| CCN(CC)C(=O)NC1CCN(C(c2ccc(OC(C)C)cc2)c2cccnc2)CC1 (configuration not stated) | 87 nM | 280 nM | > 100000 nM |  |
| CCNC(=O)NC1CCN(C(c2ccc(Cl)cc2)c2cccnc2)CC1 (configuration not stated) | 97 nM | 300 nM | > 100000 nM |  |
| O=S(=O)(C1CCCCC1)N1CCC(NC(c2ccc(C(F)(F)F)cc2)c2cnccn2)CC1 (configuration not stated) | 570 nM | 970 nM | 62600 nM |  |
| CCS(=O)(=O)N1CCC(NC(c2cnccn2)c2ccc(F)cc2F)CC1 (configuration not stated) | 620 nM | > 1000 nM | > 100000 nM |  |
| OC(c1ccc(Cl)cc1)(c1ccc(C(F)(F)F)cc1)c1cnc2ccccc2c1 (configuration not stated) | > 1000 nM | > 1000 nM | 62600 nM |  |
| CC(C)Oc1ccc(C(O)(c2cccnc2)c2cccc(C(N)=O)c2)cc1 (configuration not stated) | 92 nM | 330 nM | 69700 nM |  |
| OC(c1cncnc1)(c1ccccc1F)c1ccccc1Cl (configuration not stated) | 2640 nM | 9370 nM | > 100000 nM |  |
| CC(C)(C)C(=O)N1CCN(C(c2cncnc2)c2ccc(Cl)cc2F)CC1 (configuration not stated) | 80.5 nM | 302 nM | > 100000 nM |  |
| CCN1CCN(C(c2ccc(Cl)cc2)c2cccnc2)CC1 (configuration not stated) | > 1000 nM | > 1000 nM | > 100000 nM |  |
| CC(C)(O)CN1CCC(NC(c2ccc(Cl)cc2)c2cccnc2)CC1 (configuration not stated) | 565 nM | 1020 nM | > 100000 nM |  |
| CCS(=O)(=O)N1CCN(C(c2ccc(Cl)cc2)c2cncnc2)CC1 (configuration not stated) | 260 nM | 850 nM | > 100000 nM |  |
| O=C(c1cc(C(O)(c2ccc(Cl)cc2)c2cccnc2)ccc1Cl)N1CCOCC1 (configuration not stated) | 120 nM | 470 nM | > 100000 nM |  |
| Cc1occc1C(=O)Nc1ccccc1 [FENFURAM] | 75000 nM | > 100000 nM |  | > 100000 nM |
| FC(F)(F)c1ccc(C(c2cncnc2)N2CCN(c3nccs3)CC2)cc1 (configuration not stated) | 109 nM | 266 nM | 68200 nM |  |
| CC(C)Oc1ccc(C(O)(c2cccnc2)c2cccc(C(N)=O)c2)cc1F (configuration not stated) | 99 nM | 270 nM | > 100000 nM |  |
| O=C(Nc1ccccc1)N1CCN(C(c2ccc(Cl)cc2)c2cncnc2)CC1 (configuration not stated) | 120 nM | 310 nM | 83700 nM |  |
| O=C1OC(c2ccc(Cl)cc2)(c2cccnc2)c2ccccc21 (configuration not stated) | 230 nM | 870 nM | 84800 nM |  |
| Cc1cc(C(=O)N2CCC(NC(c3ccc(C(F)(F)F)cc3)c3cccnc3)CC2)no1 (configuration not stated) | 120 nM | 350 nM | > 100000 nM |  |
| NC(=O)c1ccccc1N1CCC(NC(c2cccnc2)c2ccc(Cl)cc2F)CC1 (configuration not stated) | 76 nM | > 100 nM | 71800 nM |  |
| O=C(NC(c1ccc(Cl)cc1)c1cccnc1)c1ccc(Cl)cc1 (configuration not stated) | 450 nM | 900 nM | 58000 nM |  |
| CS(=O)(=O)N1CCN(C(c2ccc(Cl)cc2)c2cncnc2)CC1 (configuration not stated) | 880 nM | 7540 nM | > 100000 nM |  |

Now from value to molecule, other results behind:

| IC50 (Trypanosoma cruzi [1]) | IC90 (Trypanosoma cruzi [3]) | SMILES | IC50 ([2]; IC50) | IC50 [2] |
| --- | --- | --- | --- | --- |
| 18 nM | 86 nM | CCOC(=O)NC1CCN(C(c2ccc(Cl)cc2)c2cccnc2)CC1 (configuration not stated) | > 100000 nM |  |
| 32 nM | 50 nM | Fc1ccc(N2CCC(NC(c3cccnc3)c3ccc(Cl)cc3F)CC2)c(C(F)(F)F)c1 (configuration not stated) | 58900 nM |  |
| 14 nM | 190 nM | Clc1ccc(C(NCCc2c[nH]c3ccccc23)c2cccnc2)cc1 (configuration not stated) | 48700 nM |  |
| 66.5 nM | 278 nM | Cc1cc(C(=O)N2CCN(C(c3cccnc3)c3ccc(Cl)cc3F)CC2)no1 (configuration not stated) | 69700 nM |  |
| 70 nM | 300 nM | NC(=O)c1cccc(C(O)(c2ccc(C(F)(F)F)cc2)c2cccnc2)c1 (configuration not stated) | > 100000 nM |  |
| 70 nM | 190 nM | CCOC(=O)N1CCC(NC(c2ccc(Cl)cc2)c2cccnc2)CC1 (configuration not stated) | > 100000 nM |  |
| 28.5 nM | 72 nM | Fc1ccc(N2CCC(NC(c3cccnc3)c3ccc(Cl)cc3F)CC2)cc1Cl (configuration not stated) | 54500 nM |  |
| 7 nM | 19 nM | CSc1ccc(N2CCC(NC(c3ccc(Cl)cc3)c3cccnc3)CC2)cc1 (configuration not stated) | 30200 nM |  |
| 26.5 nM | 150 nM | Cc1n[nH]c(C)c1C(=O)N1CCC(NC(c2ccc(C(F)(F)F)cc2)c2cccnc2)CC1 (configuration not stated) | > 100000 nM |  |
| 18 nM | 82 nM | Cc1ncsc1C(=O)NC1CCN(C(c2ccc(C(F)(F)F)cc2)c2cccnc2)CC1 (configuration not stated) | 60400 nM |  |
| 14 nM | 42 nM | Fc1ccc(N2CCC(NC(c3cccnc3)c3ccc(Cl)cc3F)CC2)cc1F (configuration not stated) | 34200 nM |  |
| 36 nM | 95 nM | O=S(=O)(c1ccc(C(F)(F)F)cc1)N1CCC(NC(c2cccnc2)c2ccc(Cl)cc2F)CC1 (configuration not stated) | 18000 nM |  |
| 41 nM | 93 nM | FC(F)(F)c1ccc(C(c2cccnc2)N2CCC(Oc3ccccc3Cl)CC2)cc1 (configuration not stated) | 60100 nM |  |
| 34 nM | 94 nM | CC(C)(C)C(=O)N1CCC(NC(c2ccc(C(F)(F)F)cc2)c2cncs2)CC1 (configuration not stated) | > 100000 nM |  |
| 58 nM | 140 nM | CC(C)(C)OC(=O)N1CCC(NC(c2ccc(C(F)(F)F)cc2)c2cnccn2)CC1 (configuration not stated) | 62800 nM |  |
| 15.5 nM | 176 nM | Cc1nocc1C(=O)NC1CCN(C(c2ccc(C(F)(F)F)cc2)c2cccnc2)CC1 (configuration not stated) | 65300 nM |  |
| 60 nM | 220 nM | O=C(NC1CCCC1)NC1CCN(C(c2ccc(Cl)cc2)c2cccnc2)CC1 (configuration not stated) | 62600 nM |  |
| 9 nM | 28 nM | Cc1noc(C)c1C(=O)NC1CCN(C(c2ccc(C(F)(F)F)cc2)c2cccnc2)CC1 (configuration not stated) | > 100000 nM |  |
| 34 nM | 99 nM | O=C(OCc1ccccc1)N1CCN(C(c2ccc(Cl)cc2)c2cccnc2)CC1 (configuration not stated) | 51600 nM |  |
| 21 nM | 30 nM | Fc1ccc(OC2CCN(C(c3ccc(C(F)(F)F)cc3)c3cccnc3)CC2)cc1 (configuration not stated) | 23800 nM |  |
| 26 nM | 110 nM | O=C(NC1CCCCC1)NC1CCN(C(c2ccc(Cl)cc2)c2cccnc2)CC1 (configuration not stated) | 84300 nM |  |
| 15.5 nM | 204 nM | O=C(NC1CCN(C(c2cncnc2)c2ccc(Cl)cc2F)CC1)c1c(F)cccc1F (configuration not stated) | 82300 nM |  |
| 19 nM | 50 nM | Fc1cc(Cl)cc(N2CCC(NC(c3cccnc3)c3ccc(Cl)cc3F)CC2)c1 (configuration not stated) | 53100 nM |  |
| 50 nM | 150 nM | CS(=O)(=O)NC1CCN(C(c2ccc(C(F)(F)F)cc2)c2cccnc2)CC1 (configuration not stated) | > 100000 nM |  |
| 38 nM | 130 nM | CON(C)C(=O)c1cccc(C(O)(c2ccc(Cl)cc2)c2cccnc2)c1 (configuration not stated) | > 100000 nM |  |
| 24 nM | 76 nM | CCOC(=O)N1CCN(C(c2cccnc2)c2ccc(Cl)cc2F)CC1 (configuration not stated) | 60400 nM |  |
| 20.7 nM | 47 nM | N#Cc1cc(N2CCC(NC(c3cccnc3)c3ccc(Cl)cc3F)CC2)ccc1F (configuration not stated) | 38400 nM |  |
